Experimental data as given in ChEMBL document CHEMBL1133949, “Development of C-20 modified betulinic acid derivatives as antitumor agents” (Bioorg Med Chem Lett, 2001).

How the values were obtained:
PC-3 = test: Cytotoxicity of compound against human prostate adenocarcinoma (PC3) using SRB assay; type: functional, cell-based, Prostate gland
SK-MEL-2 [1] = test: Cytotoxicity of compound against SK-MEL-2 using SRB assay; type: functional, cell-based, Homo sapiens
UACC-257 = test: Cytotoxicity of compound against human melanoma cell lines (UACC-257) using MTT assay; type: functional
SK-MEL-2 [2] = test: Cytotoxicity of compound against human melanoma cell lines (SK-MEL-2) using MTT assay; type: functional
HCT-116 = test: Cytotoxicity of compound against human colon carcinoma (HCT116) using MTT assay; type: functional
M14 = test: Cytotoxicity of compound against human melanoma cell lines (M14-MEL) using MTT assay; type: functional

| SMILES | EC50 (PC-3) | EC50 (SK-MEL-2 [1]) | GI50 (UACC-257) | GI50 (SK-MEL-2 [2]) | GI50 (HCT-116) | GI50 (M14) |
| --- | --- | --- | --- | --- | --- | --- |
| CO/N=C1\CC[C@]2(C)[C@H]3CC[C@@H]4[C@H]5[C@H](C(C)C)CC[C@]5(C(=O)O)CC[C@@]4(C)[C@]3(C)CC[C@H]2C1(C)C | > 16.4 µM | > 21.2 µM | – | – | – | – |
| C=C(C)[C@@H]1CC[C@]2(C(=O)O)CC[C@]3(C)[C@H](CC[C@@H]4[C@@]5(C)CC[C@H](O)C(C)(C)[C@@H]5CC[C@]43C)[C@@H]12 [BETULINIC ACID] | 1.9 µM | 2.2 µM | 1.5 µM | 3.2 µM | 2.7 µM | 2.7 µM |
| C=C(CNOC)[C@@H]1CC[C@]2(C(=O)O)CC[C@]3(C)[C@H](CC[C@@H]4[C@@]5(C)CC[C@H](O)C(C)(C)[C@@H]5CC[C@]43C)[C@@H]12 | > 50 µM | > 50 µM | – | – | – | – |
| C/C(=N/O)[C@@H]1CC[C@]2(C(=O)O)CC[C@]3(C)[C@H](CC[C@@H]4[C@@]5(C)CC[C@H](O)C(C)(C)[C@@H]5CC[C@]43C)[C@@H]12 | > 50 µM | > 50 µM | > 50 µM | > 50 µM | > 50 µM | > 50 µM |
| CO/N=C(/C)[C@@H]1CC[C@]2(C(=O)O)CC[C@]3(C)[C@H](CC[C@@H]4[C@@]5(C)CC[C@H](O)C(C)(C)[C@@H]5CC[C@]43C)[C@@H]12 | > 50 µM | > 50 µM | > 50 µM | > 50 µM | > 50 µM | > 50 µM |
| CC(=O)[C@@H]1CC[C@]2(C(=O)O)CC[C@]3(C)[C@H](CC[C@@H]4[C@@]5(C)CC[C@H](O)C(C)(C)[C@@H]5CC[C@]43C)[C@@H]12 [PLATANIC ACID] | > 50 µM | > 50 µM | > 50 µM | > 50 µM | > 50 µM | > 50 µM |
| CC(O)[C@@H]1CC[C@]2(C(=O)O)CC[C@]3(C)[C@H](CC[C@@H]4[C@@]5(C)CC[C@H](O)C(C)(C)[C@@H]5CC[C@]43C)[C@@H]12 (stereo not given in full) | > 50 µM | > 50 µM | > 50 µM | > 50 µM | > 50 µM | > 50 µM |
| C=C(CNO)[C@@H]1CC[C@]2(C(=O)O)CC[C@]3(C)[C@H](CC[C@@H]4[C@@]5(C)CC[C@H](O)C(C)(C)[C@@H]5CC[C@]43C)[C@@H]12 | > 50 µM | > 50 µM | – | – | – | – |
| CC(C)[C@@H]1CC[C@]2(C(=O)O)CC[C@]3(C)[C@H](CC[C@@H]4[C@@]5(C)CCC(=O)C(C)(C)[C@@H]5CC[C@]43C)[C@@H]12 [DIHYDROBETULONIC ACID] | > 1.3 µM | > 1.6 µM | – | – | – | – |
| C=C(CO)[C@@H]1CC[C@]2(C(=O)O)CC[C@]3(C)[C@H](CC[C@@H]4[C@@]5(C)CC[C@H](O)C(C)(C)[C@@H]5CC[C@]43C)[C@@H]12 | > 8.4 µM | > 9 µM | > 50 µM | > 9.3 µM | > 9.8 µM | > 16.2 µM |
| CC(C)[C@@H]1CC[C@]2(C(=O)O)CC[C@]3(C)C(CCC4[C@@]5(C)CC[C@H](O)C(C)(C)C5CC[C@]43C)C12 (stereo not given in full) [DIHYDROBETULINIC ACID] | > 2.2 µM | > 2 µM | – | – | – | – |
| C=C(COC)[C@@H]1CC[C@]2(C(=O)O)CC[C@]3(C)[C@H](CC[C@@H]4[C@@]5(C)CC[C@H](O)C(C)(C)[C@@H]5CC[C@]43C)[C@@H]12 | > 9.4 µM | > 10.1 µM | > 12.7 µM | > 50 µM | > 8.6 µM | > 9 µM |
| C=C(C)[C@@H]1CC[C@]2(C(=O)O)CC[C@]3(C)[C@H](CC[C@@H]4[C@@]5(C)CC[C@H](OC(C)=O)C(C)(C)[C@@H]5CC[C@]43C)[C@@H]12 | > 7.2 µM | > 6.9 µM | > 4.5 µM | > 3.9 µM | > 11.3 µM | > 6.4 µM |
| CC(C)[C@@H]1CC[C@]2(C(=O)O)CC[C@]3(C)[C@H](CC[C@@H]4[C@@]5(C)CC/C(=N\O)C(C)(C)[C@@H]5CC[C@]43C)[C@@H]12 | > 3 µM | > 3.4 µM | – | – | – | – |
